In patent EP0989983B1 (SCHERING CORPORATION, priority 1997, dated 1998):
“And” between values parts separate entries of the source, which are not always exact repeats. Equal values may be shown once.

What follows are compounds tested against farnesyl protein transferase (Homo sapiens, UniProt P49354+P49356) (assay: FPT IC50, inhibition of farnesyl protein transferase, in vitro enzyme assay (procedure of WO 95/10516)). Details: several values in a cell are repeat determinations, read-out: FPT C50.
Assay type: biochemical
Description: FPT IC50 (inhibition of farnesyl protein transferase, in vitro enzyme assay). and COS Cell IC50 (Cell-Based Assay) were determined following the assay procedures described in WO 95/10516, published April 20, 1995. GGPT IC50 (inhibition of geranylgeranyl protein transferase, in vitro enzyme assay), Cell Mat Assay, and anti-tumor activity (in vivo anti-tumor studies) could be determined by the assay procedures described in WO 95/10516. The disclosure of WO 95/10516 is incorporated herein by reference thereto.

| Structure (SMILES) | IC50 |
| --- | --- |
| O=C(NCCCN1CCCC1=O)C1CN(C2c3ncc(Br)cc3CCc3cc(Cl)cc(Br)c32)CCN1 (stereo not drawn) [Compound 216, 4-(3,10-DIBROMO-8-CHLORO-6,11-DIHYDRO-5H-BENZO[5,6] CYCLOHEPTA[1,2-b]PYRIDIN-11-YL)-N-[3-(2-OXO-1-PYRROLIDINYL)PROPYL]-2-PIPERAZINECARBOXAMIDE] | > 150 nM |
| COCC(=O)N1CCN(C2c3ncc(Br)cc3CCc3cc(Cl)cc(Br)c32)CC1C(=O)NCCCN1CCCC1=O (stereo not drawn) [Compound 218] | 48 nM |
| O=C(NCCc1c[nH]cn1)C1CN(C2c3ccc(Cl)cc3CCc3cc(Br)cnc32)CCN1C(=O)NC1CCCCC1 (stereo not drawn) [Compound 227] | 7.2 nM and 6.7 nM |
